Laboratory results as given in US20080275095A1, “Combination of Prostaglandin E2 Receptor Antagonists and Renin-Angiotensin System Inhibitors for Treating Renal Diseases” (Astellas Pharma Inc., priority 2004, published 2008).

System: rat uninephrectomized anti-Thy-1 nephritis model
Test: Combination effect of captopril and FR233074 on rat uninephrectomized anti-Thy-1 nephritis model
Assay type: in vivo
Details: for elevation in systolic blood pressure: 10 weeks after administration of the antibody, FIG. 9; for elevation in systolic blood pressure / glomerular and tubulointerstitial injury (histological observation): versus control group; for increase in urinary excretion of protein: 24-h urine up to 24 weeks after antibody, captopril 30 mg/kg/day, FR233074 20 mg/kg/day, FIG. 3; for time from the disease induction to the renal death (time point for 1/Cr=0.1): linear extrapolation from averaged 1/Cr and 1/Cr slope, FIG. 8; for rate of decline in renal function (1/Cr slope): single agents versus control, combination versus each agent alone, FIG. 7; for glomerular and tubulointerstitial injury (histological observation): FIG. 12-13
Description: Male Wistar rats (6-weeks old) were used for the example. These Wistar rats were anesthetized by administration of pentobarbital and subjected to unilateral nephrectomy. Two weeks later, these rats were injected with anti-Thy-1 antibody (gift of Department of Cell Biology, Institute of Nephrology, Niigata University Graduate School of Medical and Dental Sciences, Japan) from tail vein of them to induce anti-Thy-1 nephritis. Normal group were subjected to only ventrotomy without unilateral nephrectomy and injected with saline instead of anti-Thy-1 antibody.
One week after administration of the antibody, the rats were weighted, blood of the rats were collected (0.55 ml from subclavian vein), and 24-h urine collections were performed. Then, these rats were divided into the groups based on body weight, renal function parameters (BUN (blood urea nitrogen) and serum creatinine) and urinary excretion of protein.
The agents were administered to the rats for 23 weeks from the day of the grouping. 2, 4, 6, 8, 12, 16, 20 and 24 weeks after administration of the antibody (at 24 weeks after administration of the antibody, the administration of the agents was finished), the rats were weighted, blood of the rats were collected, 24-h urine collections were performed, and then, body weight, renal function parameters and urinary excretion of protein of the rats were determined. Systemic blood pressure of each rat was also measured at 10 weeks after administration of the antibody.
An averaged value of 1/Cr in each group at one week after disease induction was plotted, and drew down linearly, based on an averaged value of 1/Cr slope in each group. A time point for 1/Cr=0.1 was calculated, and defined as time reaching renal death (time point for 1/Cr=0.1 is one of standards for introducing dialytic therapy in clinical practice).

## O=C(NS(=O)(=O)Cc1ccccc1)c1cccc(C[C@@H]2CCCC=C2c2nc(-c3ccccc3)c(-c3ccccc3)o2)c1 [FR233074, N-benzylsulfonyl-3-{[(1S)-2-(4,5-diphenyloxazol-2-yl)-2-cyclohexen-1-yl]methyl}benzamide]
  elevation in systolic blood pressure: no significant effect
  increase in urinary excretion of protein: suppressed
  time from the disease induction to the renal death (time point for 1/Cr=0.1): prolonged
  rate of decline in renal function (1/Cr slope): decreased
  glomerular and tubulointerstitial injury (histological observation): extent of damage was reduced

## C[C@H](CS)C(=O)N1CCC[C@H]1C(=O)O [captopril]
  elevation in systolic blood pressure: suppressed
  increase in urinary excretion of protein: suppressed
  time from the disease induction to the renal death (time point for 1/Cr=0.1): prolonged
  rate of decline in renal function (1/Cr slope): decreased
  glomerular and tubulointerstitial injury (histological observation): extent of damage was reduced
